Measurements reported in patent US7022694B2, “Indoles and indolines having 5-HT activity” (Pharmacia & UpJohn Company, priority 2001, dated 2006).

melting point [°C]	Structure (SMILES)
150 to 153	CN1CCc2ccc3cc[nH]c3c2CC1
129 to 132	c1cnc2c(OCCn3ccc4ccc5c(c43)CCNCC5)cccc2c1 [Example 6, 1-[2-(8-Quinolinyloxy)ethyl]-1,6,7,8,9,10-hexahydroazepino[4,5-g]indole]
